# In patent publication US20060014726A1, “Derivatives of cyclic1, 3- propanediol phosphate and their action in differentiation therapy” (priority 2002, published 2006):
# Tests used:
# [1] = tested on: T47D human breast cancer cells (clone 11); assay: Proliferation assay ([3H]thymidine uptake); assay type: cell-based; settings: T47D clone 11, 50 μM
# Experimental: In order to validate such an observation, T47D cells were incubated with varying concentration of 1,3-cPP in the range of 1-50 μM in a standard 5 day [3H]thymidine uptake assay.
# T47D cells (clone 11;ER^+PR^+) were plated in 96 well plates in sets of 6, each containing 8×10^4 cells in a final volume of 200 μl per well. 1,3-cPP was added to the cultures to form a final concentration of 1-50 μM. Plates were incubated at 37° C. over the course of 5 days, where on each day, one plate was pulsed with [^3H]thymidine (5.7 Ci/mmol, Sigma, St. Louis, Mo.) overnight for the last 16 hours of the assay, and then frozen. The plates were harvested (Packard micromate 196 harvester, Merriden, Conn.) and radioactivity was scored on a 96 well plate reader (Packard 96, merriden, Conn.).
# MCF-7 cells = assay: Anti-tumor assay, MCF-7 tumors in athymic CD-1 mice; assay type: in vivo
# Experimental: To test this possibility, we followed the procedure of Kurokawa et al. Female athymic outbred CD-1 mice were implanted with a slow release estradiol tablet and injected intra-fat-pad (i.f.p.) in the lower right abdomen 3×10^6 viable MCF-7 cells (see Materials and Methods). Twelve days later, when the tumors became palpable, mice were randomly allocated into two groups, each with six mice. The control group was injected with PBS i.p. and the treatment group was injected with 0.5 mg 1,3cPP dissolved in PBS i.p. in the lower left abdomen on day 1,3,6, and 8. Tumor size was then measured 2-3 times a week. In the control group, the tumors grew continuously and reached an average size of >1250 mm^3. The origin of the large variation in tumor size was due to one mouse with a relatively small tumor in this group.
# Female athymic outbred CD-1 mice 12 weeks of age were obtained from the animal breeding center of our Institute. Animals were maintained and treated according to “Principles of laboratory animal care”, (NIH publication no. 85-23) under the supervision of the Council for Experiments on animals, of our Institute. Mice were anesthetized and implanted subcutaneously with a 0.25 mg, 21-day release 17β-estradiol pellet (Innovative Research of America, Sarasota, Fla.) in the dorsal space and injected intra-fat-pad (i.f.p.) in the lower right abdomen with 3×10^6 MCF-7 cells. Twelve days later, when the tumors became palpable, mice were randomly allocated into two groups, each with 6 mice. The control group was injected with PBS and the treatment group was injected with 0.5 mg 1,3cPP in PBS i.p. in the lower left abdomen on day 1,3,6, and 8. Tumor diameters were serially measured with calipers assuming a hemiellipsoid shape, where volume=[…]×(length/2)×(width/2)×(thickness/2).
# [2] = tested on: estrogen receptor-α (ER-α) in MCF-7 cells; assay: Western blot analysis of ER-α level in MCF-7 cells; assay type: cell-based, human; settings: MCF-7 cells; for increase in the level of wild type ER-α receptor (MW 70,000): 1-100 μM 1,3cPP
# Experimental: Turning to FIG. 1 there are shown Western blot analyses showing the effect of 1,3cPP on the expression level of ER-α. In the ER-α assay, MCF-7 cells were incubated with 1-100 μM 1,3cPP for up to 14 days. The analysis indicates a relative increase in the level of wild type ER-α receptor (MW 70,000) with either an increase in 1,3cPP concentration or time of incubation. On days 6 and 14, a nearly 2-fold and 3-fold increase were observed, respectively (FIGS. 1A, C, D, F). […] This band could be related to one of deleted exons D3-4 (MW 49,000), D4 (MW 54,000), or D7 (MW 51,000) ER-α variants.
# Breast Cancer Cells. The human breast cancer MCF-7 cell line were obtained from Prof. Hadassa Degani, of Weizmann Institute of Science, Rehovot, Israel. The cells were grown as monolayers in high glucose DMEM supplemented with 6% fetal calf serum and combined antibiotics. Human breast cancer T47D cells, clones 8 (ER^loPR^lo) and 11 (ER^+PR^+) were obtained from Prof Iafa Keydar, Tel-Aviv university and were grown in DMEM supplemented with 10% fetakl calf serum antibiotics. K562 erythroleukemia cells were obtained from Dr. Alfa Peled of Weizmann Institute of Science, Rehovot, Israel. These cells were grown in RPMI 1640 containing 10% fetal calf serum and antibiotics. All lines were grown at 37° C. in the presence of 5% CO2. The absence of Mycoplasma contamination was monitored by a Mycotrim TC test (Irvine Scientific, Santa Ana, Calif.) carried out once every 3 months.
# For ER-α protein analysis, MCF-7 and T47D cells were cultured in 60×15 mm petri dishes. From the second day of culture onward, the cells were treated with various concentrations of 1,3cPP for up to 14 days. At the end of the incubation period, the medium was aspirated and the cells were washed 3 times with cold (4° C.) PBS. The cells were then gently scraped off using a rubber policeman in 0.25 ml of lysis buffer composed of 50 mM β-glycerophosphate, 1 mM DTT, 1.5 mM EGTA, 1 mM EDTA, 1% (Octylphenoxy)polyethoxyethanol (IGEPAL, Sigma, St. Louis, Mo.), a nonionic detergent, and a cocktail of protease inhibitors, including 1 mM phenylmethylsulfonyl fluoride (PMSF), 1 mM benzamidine, 10 μg/ml aprotinin, 10 μg/ml leupeptin, and 2 μg/ml pepstanin, as well as 1 mM sodium orthovanadate (Sigma, St. Louis, Mo.) as a phosphatase inhibitor. […] The protein concentration in each sample (1.5-4 mg/ml) was determined using the Coomassie Protein Assay (Pierce, Rockford, Ill.) according to the manufacturer's instructions. […] Bound antibodies were detected by horseradish peroxidase-conjugated goat anti-rabbit IgG, (Transduction Laboratories, Lexington, Ky. using the ECL detection method. Band densities were quantified by densitometry (Biorad model GS-690 Imaging densitometer) using Molecular Analyst software.
# [3] = 0.5 mg i.p. on day 1,3,6 and 8, athymic CD-1 mice
structure (smiles),measurement,setting,value
"O=P1(O)OCCCO1 [1,3-cPP, 1,3-cyclic propanediol phosphate]","proliferation ([3H]thymidine uptake), persistence of effect",[1]; after the third day of 5 day assay,effect was lost after the third day
same,proliferation ([3H]thymidine uptake) compared to control cultures,"[1]; first 3 days of incubation, P values 0.0370, 0.0192 and 0.0238 on days 1-3",significantly inhibited proliferation
same,"changes in appearance, body weight or behavior upon injection",MCF-7 cells; [3],"no changes in appearance, body weight or behavior"
same,toxic effects during the course of the experiment,MCF-7 cells; [3],No observable toxic effects
same,"tumor size, treatment versus control group","MCF-7 cells; 0.5 mg i.p. on day 1,3,6 and 8, day 36 (P=0.032) and day 43 (P=0.032), MCF-7 tumors in athymic CD-1 mice",significant difference
same,"increase in the level of wild type ER-α receptor (MW 70,000)","[2]; day 6, Western blot densitometry",~2 fold
same,"increase in the level of wild type ER-α receptor (MW 70,000)","[2]; day 14, Western blot densitometry",~3 fold
same,"increase in the intensity of a ER variant with an approximate MW of 50,000","[2]; day 11, Western blot",5 fold
